# Where two headings read alike, the source gives them in different places.
# Key:
# AsPC-1 (K-Ras G12D) [1] = test: Potency assay: pERK; assay type: cell-based; conditions: Homo sapiens, ASPC1, read-out: pERK EC50
# AsPC-1 (K-Ras G12D) [2] = test: CellTiter-Glo cell viability assay; assay type: cell-based; conditions: Homo sapiens, ASPC1, 120 h, read-out: AsPC-1 Cell Viability assay data IC50, K-Ras G12D, 5-day treatment
# Summary of the method: (§1)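 Viability is scored by CellTiter-Glo luminescence on day 5 of compound treatment, relative to vehicle (DMSO) wells set as 100%, with a four-parameter logistic fit.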
# NCI-H358 (K-Ras G12C) = test: CellTiter-Glo cell viability assay; assay type: cell-based; conditions: Homo sapiens, NCI-H358, 120 h, read-out: H358 Cell Viability assay data IC50, K-Ras G12C, 5-day treatment
# Summary of the method: as §1
# KRAS G12D = KRAS G12D (Homo sapiens, UniProt P01116+P62937, G12D); test: Ras-Raf disruption / FRET / MOA assay (BRAF RBD); assay type: biochemical; conditions: with Cyclophilin A
# KRAS G12D, sequence (P01116 1-169 isoform P01116-2 G12D limits assumed): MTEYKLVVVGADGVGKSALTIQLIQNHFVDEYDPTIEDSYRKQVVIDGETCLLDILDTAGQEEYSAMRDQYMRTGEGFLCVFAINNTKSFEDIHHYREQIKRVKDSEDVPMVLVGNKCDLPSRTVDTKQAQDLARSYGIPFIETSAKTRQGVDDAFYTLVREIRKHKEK
# KRAS G12D, sequence (P62937 whole entry): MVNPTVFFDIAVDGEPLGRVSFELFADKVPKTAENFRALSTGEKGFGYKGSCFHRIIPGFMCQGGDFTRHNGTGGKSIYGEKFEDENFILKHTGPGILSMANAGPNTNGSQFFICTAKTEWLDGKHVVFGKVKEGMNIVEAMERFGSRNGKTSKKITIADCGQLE
# Summary of the method: (§2)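 TR-FRET in 25 mM HEPES pH 7.3, 100 mM NaCl, 5 mM MgCl2, 0.1% BSA, 0.002% Tween20 with 25 μM Cyclophilin A, 12.5 nM His6-Ras-GMPPNP, 50 nM GST-BRAF RBD; compound 10-point 3-fold series from 30 μM. After 3 h at 25 °C, Eu anti-His/APC anti-GST added for 1.5 h; IC50 from ratio decrease versus DMSO.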
# KRAS G12S = KRAS G12S (Homo sapiens, UniProt P01116+P62937, G12S); test: Ras-Raf disruption / FRET / MOA assay (BRAF RBD); assay type: biochemical; conditions: with Cyclophilin A
# KRAS G12S, sequence (P01116 1-169 isoform P01116-2 G12S limits assumed): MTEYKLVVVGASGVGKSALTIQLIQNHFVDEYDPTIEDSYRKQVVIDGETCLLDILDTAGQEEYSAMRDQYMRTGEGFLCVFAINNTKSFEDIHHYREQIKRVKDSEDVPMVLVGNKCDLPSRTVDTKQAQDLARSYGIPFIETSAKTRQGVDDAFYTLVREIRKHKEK
# KRAS G12S, sequence (P62937 whole entry): as the sequence (P62937 whole entry) above
# Summary of the method: as §2
# KRAS G12V = KRAS G12V (Homo sapiens, UniProt P01116+P62937, G12V); test: Ras-Raf disruption / FRET / MOA assay (BRAF RBD); assay type: biochemical; conditions: with Cyclophilin A
# KRAS G12V, sequence (P01116 1-169 isoform P01116-2 G12V limits assumed): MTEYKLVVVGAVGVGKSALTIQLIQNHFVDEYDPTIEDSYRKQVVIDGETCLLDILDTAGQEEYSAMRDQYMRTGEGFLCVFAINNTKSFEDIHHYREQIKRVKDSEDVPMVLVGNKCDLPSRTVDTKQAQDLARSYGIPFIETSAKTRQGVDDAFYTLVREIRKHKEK
# KRAS G12V, sequence (P62937 whole entry): as the sequence (P62937 whole entry) above
# Summary of the method: as §2
# KRAS G13C = KRAS G13C (Homo sapiens, UniProt P01116+P62937, G13C); test: Ras-Raf disruption / FRET / MOA assay (BRAF RBD); assay type: biochemical; conditions: with Cyclophilin A
# KRAS G13C, sequence (P01116 1-169 isoform P01116-2 G13C limits assumed): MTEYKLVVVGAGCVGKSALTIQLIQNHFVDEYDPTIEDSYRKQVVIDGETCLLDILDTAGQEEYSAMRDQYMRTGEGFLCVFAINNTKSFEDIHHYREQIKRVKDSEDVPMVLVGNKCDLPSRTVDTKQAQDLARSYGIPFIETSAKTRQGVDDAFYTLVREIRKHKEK
# KRAS G13C, sequence (P62937 whole entry): as the sequence (P62937 whole entry) above
# Summary of the method: as §2
# KRAS G13D = KRAS G13D (Homo sapiens, UniProt P01116+P62937, G13D); test: Ras-Raf disruption / FRET / MOA assay (BRAF RBD); assay type: biochemical; conditions: with Cyclophilin A
# KRAS G13D, sequence (P01116 1-169 isoform P01116-2 G13D limits assumed): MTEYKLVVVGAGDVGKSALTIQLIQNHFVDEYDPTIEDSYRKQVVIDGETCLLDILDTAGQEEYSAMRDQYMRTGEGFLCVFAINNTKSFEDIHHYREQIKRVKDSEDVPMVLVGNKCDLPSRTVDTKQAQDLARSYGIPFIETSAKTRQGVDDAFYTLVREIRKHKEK
# KRAS G13D, sequence (P62937 whole entry): as the sequence (P62937 whole entry) above
# Summary of the method: as §2
# KRAS Q61H = KRAS Q61H (Homo sapiens, UniProt P01116+P62937, Q61H); test: Ras-Raf disruption / FRET / MOA assay (BRAF RBD); assay type: biochemical
# KRAS Q61H, sequence (P01116 1-169 isoform P01116-2 Q61H limits assumed): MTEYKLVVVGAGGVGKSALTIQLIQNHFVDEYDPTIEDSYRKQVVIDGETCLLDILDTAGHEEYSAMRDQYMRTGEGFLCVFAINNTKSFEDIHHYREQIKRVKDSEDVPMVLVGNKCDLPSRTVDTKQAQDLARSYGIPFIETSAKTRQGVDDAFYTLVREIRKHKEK
# KRAS Q61H, sequence (P62937 whole entry): as the sequence (P62937 whole entry) above
# Summary of the method: as §2
# KRAS WT = KRAS WT (Homo sapiens, UniProt P01116+P62937); test: Ras-Raf disruption / FRET / MOA assay (BRAF RBD); assay type: biochemical; conditions: with Cyclophilin A
# KRAS WT, sequence (P01116 1-169 isoform P01116-2 limits assumed): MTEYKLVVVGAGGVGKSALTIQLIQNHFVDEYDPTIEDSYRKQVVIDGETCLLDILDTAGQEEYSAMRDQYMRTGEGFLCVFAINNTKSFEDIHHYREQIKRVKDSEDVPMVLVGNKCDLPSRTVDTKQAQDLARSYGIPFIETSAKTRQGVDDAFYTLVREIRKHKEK
# KRAS WT, sequence (P62937 whole entry): as the sequence (P62937 whole entry) above
# Summary of the method: as §2
# NRAS G12C = NRAS G12C (Homo sapiens, UniProt P01111+P62937, G12C); test: Ras-Raf disruption / FRET / MOA assay (BRAF RBD); assay type: biochemical
# NRAS G12C, sequence (P01111 whole entry G12C): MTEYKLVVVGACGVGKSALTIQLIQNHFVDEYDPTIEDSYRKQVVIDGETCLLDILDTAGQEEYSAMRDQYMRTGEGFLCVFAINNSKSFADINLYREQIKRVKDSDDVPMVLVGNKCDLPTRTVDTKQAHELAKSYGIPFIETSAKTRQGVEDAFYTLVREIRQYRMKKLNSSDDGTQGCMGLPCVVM
# NRAS G12C, sequence (P62937 whole entry): as the sequence (P62937 whole entry) above
# Summary of the method: as §2
# NRAS Q61K = NRAS Q61K (Homo sapiens, UniProt P01111+P62937, Q61K); test: Ras-Raf disruption / FRET / MOA assay (BRAF RBD); assay type: biochemical
# NRAS Q61K, sequence (P01111 whole entry Q61K): as the sequence (P01111 whole entry G12C) above, with C12G, Q61K counted along it
# NRAS Q61K, sequence (P62937 whole entry): as the sequence (P62937 whole entry) above
# Summary of the method: as §2
# NRAS Q61R = NRAS Q61R (Homo sapiens, UniProt P01111+P62937, Q61R); test: Ras-Raf disruption / FRET / MOA assay (BRAF RBD); assay type: biochemical
# NRAS Q61R, sequence (P01111 whole entry Q61R): as the sequence (P01111 whole entry G12C) above, with C12G, Q61R counted along it
# NRAS Q61R, sequence (P62937 whole entry): as the sequence (P62937 whole entry) above
# Summary of the method: as §2
# NRAS WT = NRAS WT (Homo sapiens, UniProt P01111+P62937); test: Ras-Raf disruption / FRET / MOA assay (BRAF RBD); assay type: biochemical
# NRAS WT, sequence (P01111 whole entry): as the sequence (P01111 whole entry G12C) above, with C12G counted along it
# NRAS WT, sequence (P62937 whole entry): as the sequence (P62937 whole entry) above
# Summary of the method: as §2
# KRAS G12C = KRAS G12C (Homo sapiens, UniProt P01116+P62937, G12C); test: Ras-Raf disruption / FRET / MOA assay (BRAF RBD); assay type: biochemical; conditions: with Cyclophilin A
# KRAS G12C, sequence (P01116 1-169 isoform P01116-2 G12C limits assumed): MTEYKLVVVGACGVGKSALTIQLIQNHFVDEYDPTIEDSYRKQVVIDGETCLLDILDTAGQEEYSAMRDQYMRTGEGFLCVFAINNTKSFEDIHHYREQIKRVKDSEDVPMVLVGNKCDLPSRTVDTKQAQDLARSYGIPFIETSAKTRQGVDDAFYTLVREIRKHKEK
# KRAS G12C, sequence (P62937 whole entry): as the sequence (P62937 whole entry) above
# Summary of the method: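 His6-K-Ras G12C-GMPPNP (12.5 nM), GST-BRAF RBD (50 nM) and tagless Cyclophilin A (25 μM) incubated 3 h at 25 °C with compound (10-point 3-fold series from 30 μM), pH 7.3 HEPES buffer. Anti-His Eu/anti-GST APC added for 1.5 h; decreased TR-FRET ratio vs DMSO gives IC50.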
# [3] = KRAS G12D FRET data IC50, Ras-Raf disruption
# [4] = KRAS G12S FRET data IC50, Ras-Raf disruption
# [5] = KRAS G12V FRET data IC50, Ras-Raf disruption
# [6] = KRAS G13C FRET data IC50, Ras-Raf disruption
# [7] = KRAS G13D FRET data IC50, Ras-Raf disruption
# [8] = KRAS WT FRET data IC50, Ras-Raf disruption
# [9] = NRAS G12C FRET data IC50, NRAS G12C
# [10] = KRAS G12C FRET data IC50, Ras-Raf disruption
SMILES,EC50 (AsPC-1 (K-Ras G12D) [1]),IC50 (AsPC-1 (K-Ras G12D) [2]),IC50 (NCI-H358 (K-Ras G12C)),IC50 (KRAS G12D; [3]),IC50 (KRAS G12S; [4]),IC50 (KRAS G12V; [5]),IC50 (KRAS G13C; [6]),IC50 (KRAS G13D; [7]),IC50 (KRAS Q61H),IC50 (KRAS WT; [8]),IC50 (NRAS G12C; [9]),IC50 (NRAS Q61K),IC50 (NRAS Q61R),IC50 (NRAS WT),IC50 (KRAS G12C; [10]),other results
"CCn1c(-c2cc(N3CCN(C)CC3)cnc2[C@H](C)OC)c2c3cc(ccc31)-c1cc(O)cc(c1)C[C@H](NC(=O)[C@H](C1CCCC1)N(C)C(=O)CN(C)C(=O)[C@H]1CN1)C(=O)N1CCC[C@H](N1)C(=O)OCC(C)(C)C2 [Example 209, (2R)—N-(2-(((1S)-1-cyclopentyl-2-(((6^3S,4S)-1^1-ethyl-2^5-hydroxy-1^2-(2-((S)-1-methoxyethyl)-5-(4-methylpiperazin-1-yl)pyridin-3-yl)-10,10-dimethyl-5,7-dioxo-6^1,6^2,6^3,6^4,6^5,6^6-hexahydro-1^1H-8-oxa-1(5,3)-indola-6(1,3)-pyridazina-2(1,3)-benzenacycloundecaphane-4-yl)amino)-2-oxoethyl)(methyl)amino)-2-oxoethyl)-N-methylaziridine-2-carboxamide]",< 5000 nM,< 10 nM,< 10 nM,10 to 100 nM,10 to 100 nM,10 to 100 nM,< 10 nM,10 to 100 nM,< 10 nM,10 to 100 nM,< 10 nM,100 to 1000 nM,10 to 100 nM,10 to 100 nM,< 10 nM,–
"CCn1c(-c2cccnc2[C@H](C)OC)c2c3cc(ccc31)-c1cc(O)cc(c1)C[C@H](NC(=O)[C@H](C1CCCC1)N1CC[C@]3(CCN(C(=O)[C@@H]4N[C@@H]4C4CC4)C3)C1=O)C(=O)N1CCC[C@H](N1)C(=O)OCC(C)(C)C2 [Example 214, (2S)-2-cyclopentyl-2-((S)-7-((2R,3R)-3-cyclopropylaziridine-2-carbonyl)-1-oxo-2,7-diazaspiro[4.4]nonan-2-yl)-N-((6^3S,4S)-1^1-ethyl-2^5-hydroxy-1^2-(2-((S)-1-methoxyethyl)pyridin-3-yl)-10,10-dimethyl-5,7-dioxo-6^1,6^2,6^3,6^4,6^5,6^6-hexahydro-1^1H-8-oxa-1(5,3)-indola-6(1,3)-pyridazina-2(1,3)-benzenacycloundecaphane-4-yl)acetamide]",< 5000 nM,10 to 100 nM,10 to 100 nM,–,–,–,–,–,–,–,–,–,–,–,–,"IC50 (KRAS G12D; Ras-Raf disruption, read-out: KRAS G12D FRET data IC50): < 10 nM; IC50 (KRAS G12S; Ras-Raf disruption, read-out: KRAS G12S FRET data IC50): 10 to 100 nM; IC50 (KRAS G12V; Ras-Raf disruption, read-out: KRAS G12V FRET data IC50): 10 to 100 nM; IC50 (KRAS G13C; Ras-Raf disruption, read-out: KRAS G13C FRET data IC50): 10 to 100 nM; IC50 (KRAS G13D; Ras-Raf disruption, read-out: KRAS G13D FRET data IC50): 100 to 1000 nM; IC50 (KRAS Q61H; KRAS Q61H, read-out: KRAS Q61H FRET data IC50): 10 to 100 nM; IC50 (KRAS WT; Ras-Raf disruption, read-out: KRAS WT FRET data IC50): 10 to 100 nM; IC50 (NRAS G12C; NRAS G12C, read-out: NRAS G12C FRET data IC50): 10 to 100 nM; IC50 (NRAS Q61K; NRAS Q61K, read-out: NRAS Q61K FRET data IC50): 100 to 1000 nM; IC50 (NRAS Q61R; NRAS Q61R, read-out: NRAS Q61R FRET data IC50): 100 to 1000 nM; IC50 (NRAS WT; NRAS WT, read-out: NRAS WT FRET data IC50): 10 to 100 nM; IC50 (KRAS G12C; Ras-Raf disruption, read-out: KRAS G12C FRET data IC50): 10 to 100 nM"
CCn1c(-c2cccnc2[C@H](C)OC)c2c3cc(ccc31)-c1cc(O)cc(c1)C[C@H](NC(=O)[C@H](C(C)C)N(C)C(=O)CN(C)C(=O)[C@@]1(C)CN1)C(=O)N1CCC[C@H](N1)C(=O)OCC(C)(C)C2 [Example 256],< 5000 nM,100 to 1000 nM,10 to 100 nM,10 to 100 nM,10 to 100 nM,10 to 100 nM,< 10 nM,10 to 100 nM,10 to 100 nM,10 to 100 nM,10 to 100 nM,100 to 1000 nM,100 to 1000 nM,10 to 100 nM,10 to 100 nM,–
CCn1c(-c2cccnc2[C@H](C)OC)c2c3cc(ccc31)-c1cc(O)cc(c1)C[C@H](NC(=O)[C@H](C(C)C)N(C)C(=O)CN(C)C(=O)[C@]1(C)CN1)C(=O)N1CCC[C@H](N1)C(=O)OCC(C)(C)C2 [Example 257],< 5000 nM,100 to 1000 nM,10 to 100 nM,100 to 1000 nM,10 to 100 nM,10 to 100 nM,< 10 nM,10 to 100 nM,10 to 100 nM,10 to 100 nM,10 to 100 nM,100 to 1000 nM,100 to 1000 nM,10 to 100 nM,10 to 100 nM,–
CCn1c(-c2cccnc2[C@H](C)OC)c2c3cc(ccc31)-c1cc(O)cc(c1)C[C@H](NC(=O)[C@H](C(C)C)N(C)C(=O)CN(C)C(=O)[C@@H]1N[C@@H]1C(F)(F)F)C(=O)N1CCC[C@H](N1)C(=O)OCC(C)(C)C2 [Example 258],< 5000 nM,100 to 1000 nM,10 to 100 nM,10 to 100 nM,10 to 100 nM,10 to 100 nM,< 10 nM,10 to 100 nM,< 10 nM,10 to 100 nM,10 to 100 nM,10 to 100 nM,10 to 100 nM,< 10 nM,10 to 100 nM,–
CCn1c(-c2cccnc2[C@H](C)OC)c2c3cc(ccc31)-c1cc(O)cc(c1)C[C@H](NC(=O)[C@H](C(C)C)N(C)C(=O)CN(C)C(=O)[C@H]1N[C@H]1C(F)(F)F)C(=O)N1CCC[C@H](N1)C(=O)OCC(C)(C)C2 [Example 259],< 5000 nM,100 to 1000 nM,10 to 100 nM,100 to 1000 nM,10 to 100 nM,10 to 100 nM,10 to 100 nM,10 to 100 nM,10 to 100 nM,10 to 100 nM,10 to 100 nM,100 to 1000 nM,100 to 1000 nM,10 to 100 nM,10 to 100 nM,–
